The supplement of paper PMC4862054

Columns and labels:
Details in all cases: incubation time: 72 h
[1] = test system: BT-549; experiment: normalised response (% of control), CellTiter-Glo; higher = more viable cells (100 = DMSO, 0 = benzethonium chloride kill control)
Experimental: (§1)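 DSRT, 72 h incubation, CellTox Green / CellTiter-Glo readout. Signal is normalised to DMSO and benzethonium chloride controls. Value is the normalised response at the highest dose.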

[2] = test system: Hs578T; experiment: as above
Experimental: as §1

[3] = test system: CAL-148; experiment: as above
Experimental: as §1

[4] = test system: HCC1599; experiment: as above
Experimental: as §1

[5] = test system: CAL-51; experiment: as above
Experimental: as §1

[6] = test system: HCC1143; experiment: as above
Experimental: as §1

[7] = test system: MDA-MB-231; experiment: as above
Experimental: as §1

[8] = test system: SK-BR-3; experiment: as above
Experimental: as §1

[9] = test system: DU-4475; experiment: as above
Experimental: as §1

[10] = test system: MCF-10A; experiment: as above
Experimental: as §1

[11] = test system: MDA-MB-436; experiment: as above
Experimental: as §1

[12] = test system: CAL-85-1; experiment: as above
Experimental: as §1

[13] = test system: HDQ-P1; experiment: as above
Experimental: as §1

[14] = test system: MDA-MB-453; experiment: as above
Experimental: as §1

[15] = test system: MDA-MB-468; experiment: as above
Experimental: as §1

[16] = test system: HCC1937; experiment: as above
Experimental: as §1

[17] = test system: MFM-223; experiment: as above
Experimental: as §1

[18] = test system: BT-474; experiment: as above
Experimental: as §1

[19] = test system: CAL-120; experiment: as above
Experimental: as §1

[20] = test system: BT-549; experiment: normalised response (% of control), CellTox Green; higher = less cell death (100 = DMSO, 0 = benzethonium chloride kill control)
In short: (§2)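 Values are normalised signals, each belonging to one concentration of the series. Breast cancer cells (20 µl suspension) were seeded into 384-well plates with compound at 5 concentrations in 10-fold steps over a compound-specific 10,000-fold range and incubated 72 h. Readouts were CellTox Green fluorescence (485/520 nm), then CellTiter-Glo luminescence after 10 min at room temperature, with each plate set to 0.1 % DMSO as 100 and a positive kill control as 0.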

[21] = test system: Hs578T; experiment: as above
In short: as §2

[22] = test system: CAL-148; experiment: as above
In short: as §2

[23] = test system: HCC1599; experiment: as above
In short: as §2

[24] = test system: CAL-51; experiment: as above
In short: as §2

[25] = test system: HCC1143; experiment: as above
In short: as §2

[26] = test system: MDA-MB-231; experiment: as above
In short: as §2

[27] = test system: DU-4475; experiment: as above
In short: as §2

[28] = test system: MCF-10A; experiment: as above
In short: as §2

[29] = test system: MDA-MB-436; experiment: as above
In short: as §2

[30] = test system: CAL-85-1; experiment: as above
In short: as §2

[31] = test system: MDA-MB-453; experiment: as above
In short: as §2

[32] = test system: MDA-MB-468; experiment: as above
In short: as §2

[33] = test system: HCC1937; experiment: as above
In short: as §2

[34] = test system: MFM-223; experiment: as above
In short: as §2

[35] = test system: BT-474; experiment: as above
In short: as §2

[36] = test system: CAL-120; experiment: as above
In short: as §2

[37] = test system: HDQ-P1; experiment: as above
In short: as §2

Structure (SMILES) | normalised response [1] | normalised response [2] | normalised response [3] | normalised response [4] | normalised response [5] | normalised response [6] | normalised response [7] | normalised response [8] | normalised response [9] | normalised response [10] | normalised response [11] | normalised response [12] | normalised response [13] | normalised response [14] | normalised response [15] | normalised response [16] | normalised response [17] | normalised response [18] | normalised response [19] | normalised response [20] | normalised response [21] | normalised response [22] | normalised response [23] | normalised response [24] | normalised response [25] | normalised response [26] | normalised response [27] | normalised response [28] | normalised response [29] | normalised response [30] | normalised response [31] | normalised response [32] | normalised response [33] | normalised response [34] | normalised response [35] | normalised response [36] | normalised response [37]
CN[C@@H](C)C(=O)N[C@H]1CN(C(=O)CC(C)C)CC[C@H]2CC[C@@H](C(=O)NC(c3ccccc3)c3ccccc3)N2C1=O [AT-406] (10000 nM) | 64.9% | 94.1% | 91.2% | 97.5% | 90.8% | 85.5% | 14.2% | 89.6% | 97.9% | 106% | 93.2% | 41.9% | 84.5% | 58.1% | 65.1% | 88% | 102% | 16.4% | 61.1% | 83.8% | 92.7% | 66.9% | 97.5% | 83% | 108% | -35.9% | 95.4% | 112% | 85.5% | 0.8% | 93.2% | 57.3% | 84.8% | 103% | 89.4% | 41.2% | –
C=CCN(/C=C1/C(=O)O[C@H](COC)[C@@]2(C)C1=C(O)C(=O)C1=C2[C@H](OC(C)=O)C[C@]2(C)C(=O)CC[C@@H]12)CC=C [Sonolisib] (10000 nM) | 82.2% | 95.7% | 124% | 102% | 82.1% | 91.8% | 87.3% | 93.9% | 96.5% | 88.4% | 101% | 103% | 72.1% | 84.8% | 86% | 90.4% | 106% | 87.1% | 102% | 104% | 111% | – | 113% | 90.6% | 117% | 106% | 107% | 108% | 98.2% | 61.7% | 101% | – | 81.7% | 103% | 99.8% | 97.4% | 108%
CN(Cc1cnc2nc(N)nc(N)c2n1)c1ccc(C(=O)N[C@@H](CCC(=O)O)C(=O)O)cc1 [Methotrexate] (50000 nM) | 92.2% | 19.5% | 107% | 52.4% | 68.2% | 84.4% | 29.1% | 72.5% | 92.3% | 105% | 77.1% | 49.6% | 53.7% | 96% | 100% | 31.5% | 101% | 23.6% | 21.7% | 103% | -70.6% | 105% | 101% | 114% | – | 92.3% | 99% | 103% | 42.9% | 64.1% | 65% | 77.6% | 106% | 103% | 93.8% | 102% | 112%
CC[C@H](CO)Nc1nc(NCc2ccccc2)c2ncn(C(C)C)c2n1 [Seliciclib] (10000 nM) | 80.1% | 96.4% | 117% | 95.9% | 78.7% | 96.3% | 81.1% | 86.2% | 97.7% | 95.9% | 79.9% | 83.9% | 84.4% | 132% | 87.1% | 92.4% | 89% | 82.1% | 92% | 91.5% | 84.9% | 95.6% | 110% | 99.4% | 84.5% | 108% | 105% | 108% | 91.4% | 62.7% | 108% | 154% | 105% | 68.6% | 100% | 97.2% | 106%
O=C(O)CNC(=O)c1c(O)c2ccccc2n(Cc2ccccc2)c1=O [IOX-2] (50000 nM) | 86.4% | 103% | 97.8% | 97.3% | 71.1% | 92.6% | 85.1% | 94% | 98.3% | 102% | 62.9% | 93.9% | 91.1% | 103% | 92.2% | 98.2% | 98.2% | 85.9% | 95.3% | 73.6% | 113% | 101% | 102% | 84.3% | 104% | 100% | 97.8% | 107% | 67% | 105% | – | 133% | 91.5% | 103% | 102% | 101% | –
CCn1c(C(=O)N(C2CC2)C2CC2)cc2c3c(ncn3C)c(Nc3cc(C)n(C)n3)nc21 (10000 nM) | 102% | 96% | 103% | 123% | 106% | 93.2% | 82.2% | 93.2% | 97.9% | 86.6% | 93.6% | 99.5% | 101% | 97% | 94.4% | 92.8% | 83.1% | 83.3% | 102% | – | 89.6% | 93% | 94% | 99.5% | – | 113% | 98.5% | 109% | 88.1% | 102% | 97.7% | 80.7% | – | 94.3% | 103% | 103% | 105%
CCN(CC)CCCC(C)Nc1ccnc2cc(Cl)ccc12 (centres undefined) [Chloroquine] (100000 nM) | 0.71% | 0.3% | 0.47% | 0.3% | 1.42% | 22.8% | 0.24% | 0.25% | 0.38% | 1.88% | 1.76% | 0.53% | 0.97% | 0.26% | 1.06% | 3.72% | 0.63% | 2.13% | 7.89% | 30.4% | -118% | 24.9% | 57% | 28.5% | 67.2% | -46.1% | 48.9% | -62.8% | 42.2% | -51.4% | 1.49% | -27.6% | 18.7% | 0.04% | -2.97% | 8.39% | 23%
O=[N+]([O-])c1ccc2c(c1)S(=O)(=O)C=C2 [Stattic] (50000 nM) | -0.12% | 0.3% | 0.45% | 0.17% | 0.17% | 0.27% | -0.2% | 0.32% | 0.04% | 0.13% | -0.02% | -0.24% | 0.11% | 0.25% | 0.18% | 0.16% | 0.11% | 0.34% | -0.12% | -34.2% | -12.9% | 25.6% | 65% | 34.1% | -42.8% | -17.4% | 82.3% | -24.7% | -15.2% | -51.7% | 17.2% | -81.1% | -18.2% | 30.1% | 8.89% | 27.8% | 27.2%
CC1(COc2ccc3c(c2)ncn3-c2ccc3cccc(N4CCC(N)CC4)c3n2)COC1 [Crenolanib] (10000 nM) | 20.6% | 27.5% | 8.15% | 60.6% | 7.22% | 75.8% | 0.75% | 2.13% | 25% | 10.4% | 7.1% | 1.52% | 13.9% | 15.6% | 12.9% | 52.4% | 61.4% | 3.8% | 52.4% | 28.9% | 103% | -15.7% | 81.5% | 30.6% | 55.7% | -59% | 63.6% | -4.14% | 36.1% | -25.9% | 78.5% | 131% | 87.1% | 93.4% | 17.5% | 74.8% | 39.2%
